{"source": "patent US20260144798A1", "about": "“Disruption of Vascular Smooth Muscle Relaxation by Carfilzomib May be the Primary Reason for CFZ-Induced Vascular Dysfunction” (AMGEN INC., priority 2019, published 2026)", "tested_on": "P38 pathway", "test": "Western blot for activation of p38 pathway in rat aortic rings", "conditions": "2.7 μM CFZ 1.5 hours, with or without indomethacin plus LNAME (FIG. 7)", "description": "Aortas were isolated from 8-10 week old CD® (Sprague Dawley) rats (from Charles River Laboratories) in an ice-cold, oxygenated (95% O2, 5% CO2) Krebs-Henseleit buffer. The aortas were then carefully cleaned to remove perivascular fat and cut into 2-mm rings that were mounted between two stainless steel wires in the myograph chamber containing 8 mL of Krebs-Henseleit buffer in 95% O2 and 5% CO2 at 37° C. Rings were stretch until a final stretch of 10 mN (Newton) was reached and incubated for 30 mins for equilibration. The rings were constricted with 8 mL of 80 mM KPSS for 15 minutes, followed by 3 washes with the Krebs-Henseleit buffer until the force returned to the baseline stretch. The aorta were then treated for one of the following experiments: • For protein expression studies the aortic rings were pre-treated with 100 μM N(gamma)-nitro-L-arginine methyl ester (L-NAME; Sigma-Aldrich) and 10 μM indomethacin for 10 minutes prior to the pre-incubation with CFZ (Amgen Inc.) for 1.5 hours. The rings were then isolated for protein expression analysis. […]", "data": [{"smiles": "CC(C)C[C@H](NC(=O)[C@H](CCc1ccccc1)NC(=O)CN1CCOCC1)C(=O)N[C@@H](Cc1ccccc1)C(=O)N[C@@H](CC(C)C)C(=O)[C@@]1(C)CO1", "note": "[CFZ, carfilzomib]", "values": [{"measurement": "activation of p38 pathway", "value": "caused activation of P38 pathway with or without endothelium dependent relaxing factors"}]}]}
